# Measured values taken from patent US9592224B2, “Substituted benzothiazoles and therapeutic uses thereof for the treatment of human diseases” (CONSEJO SUPERIOR DE INVESTIGACIONES CIENTÍFICAS, priority 2013, dated 2017).
# What was measured:
# [1] = target: T1, recombinant human enzyme CK-1δ (Homo sapiens, UniProt P48730); assay: Enzyme inhibition assay, Luminometer Kinase-GLO method, CK-1δ; assay type: biochemical; settings: for IC50: casein substrate, 4 μM ATP, 60 minutes at 30° C., read-out: Inhibitory Concentration 50 (IC50) CK-1δ
# T1 construct: purchased Millipore Iberica SAU
# T1 sequence (P48730 whole entry): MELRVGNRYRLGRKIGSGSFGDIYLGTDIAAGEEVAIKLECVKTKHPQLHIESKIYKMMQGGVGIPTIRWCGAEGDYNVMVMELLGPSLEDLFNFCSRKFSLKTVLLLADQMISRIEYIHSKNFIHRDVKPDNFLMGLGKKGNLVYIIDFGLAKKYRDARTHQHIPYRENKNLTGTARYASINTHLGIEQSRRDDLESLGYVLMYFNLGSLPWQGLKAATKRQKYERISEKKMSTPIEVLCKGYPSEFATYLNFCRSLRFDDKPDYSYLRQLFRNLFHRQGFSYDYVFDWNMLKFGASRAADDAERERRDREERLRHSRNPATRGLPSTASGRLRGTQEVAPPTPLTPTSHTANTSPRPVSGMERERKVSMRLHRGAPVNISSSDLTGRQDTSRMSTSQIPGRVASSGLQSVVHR
# Method: (§1) Enzyme inhibition assays were performed using the Luminometer Kinase-GLO® method. Recombinant human enzyme CK-1δ was purchased from Millipore Iberica SAU and recombinant human enzyme CK-1ε was purchased from Invitrogen. The phosphorylation substration chosen was casein. The Luminescent Kinase Kit (catalogue no. V6711) was obtained from Promega. ATP and other reagents were purchased from Sigma-Aldrich (St. Louis, Mo.).
# (§2) The assays were conducted in buffer using 96-well plates. In a typical assay: 10 μL of the test compound (dissolved in dimethylsulfoxide at a concentration of 1 mM and, in turn, dissolved in buffer to the required concentration for the experiment) and 10 μL (16 ng) of the CK-1δ enzyme or 10 μL (50 ng) of the CK-1ε enzyme row were added to each well followed by 20 μL of buffer containing 0.1% casein as substrate and 4 μM of ATP. The assay buffer contained: 50 mM HEPES, pH 7.5; 0.01% Brij-35; 10 mM MgCl2; 1 mM EGTA and 0.01% NaN3. […] After incubating for 60 minutes at 30° C., the enzymatic reaction was stopped using 40 μL of Kinase-GLO® reagent. Luminescence was measured after ten minutes using a FLUOstar Optima (BMG Labtechnologies GmbH, Offenburg, Germany) multimode reader. The activity was proportional to the difference between the total and consumed ATP. Inhibition activities were calculated in accordance with the maximum activity measured in the absence of inhibitor. IC50 is defined as the concentration of each compound that reduces enzyme activity by 50% with respect to that obtained without inhibitor.
# [2] = target: T2, recombinant human enzyme CK-1ε (Homo sapiens, UniProt P49674); assay: Enzyme inhibition assay, Luminometer Kinase-GLO method, CK-1ε; assay type: biochemical; settings: for IC50: casein substrate, 4 μM ATP, 60 minutes at 30° C., read-out: Inhibitory Concentration 50 (IC50) CK-1ε
# T2 construct: purchased Invitrogen
# T2 sequence (P49674 whole entry): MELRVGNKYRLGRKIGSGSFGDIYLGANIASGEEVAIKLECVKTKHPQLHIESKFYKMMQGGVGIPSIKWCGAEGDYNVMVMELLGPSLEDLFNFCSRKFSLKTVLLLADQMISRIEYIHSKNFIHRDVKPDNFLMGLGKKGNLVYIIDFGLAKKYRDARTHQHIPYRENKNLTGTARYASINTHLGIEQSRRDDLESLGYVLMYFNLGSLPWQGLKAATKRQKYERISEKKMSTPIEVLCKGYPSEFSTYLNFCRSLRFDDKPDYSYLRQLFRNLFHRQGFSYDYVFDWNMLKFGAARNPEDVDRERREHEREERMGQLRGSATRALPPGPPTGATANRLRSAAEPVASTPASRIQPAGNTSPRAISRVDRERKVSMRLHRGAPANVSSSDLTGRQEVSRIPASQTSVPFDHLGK
# Method: as §1, §2
SMILES,IC50 [1] [nM],IC50 [2] [nM],inhibition at 10 µM [2] [%],inhibition at 10 µM [1] [%]
"O=C(Cc1ccccc1Cl)Nc1nc2ccc(C(F)(F)F)cc2s1 [Compound 7, N-(6-trifluoromethylbenzothiazole-2-yl)-2-(2-chlorophenyl)acetamide]",68,7730,–,–
"O=C(Nc1nc2ccc(C(F)(F)F)cc2s1)C(c1ccccc1)c1ccccc1 [Compound 15, N-(6-trifluoromethylbenzothiazole-2-yl)-2,2-diphenylacetamide]",260,2750,–,–
"COc1ccc2nc(NC(=O)C(c3ccccc3)c3ccccc3)sc2c1 [Compound 16, N-(6-methoxybenzothiazole-2-yl)-2,2-diphenylacetamide]",840,5070,–,–
"O=C(CCc1ccccc1)Nc1nc2ccc([N+](=O)[O-])cc2s1 [Compound 17, N-(6-nitrobenzothiazole-2-yl)-3-phenylpropanamide]",570,9400,–,–
"O=C(Cc1ccc(F)cc1)Nc1nc2ccccc2s1 [Compound 18, N-(benzothiazole-2-yl)-2-(4-fluorophenyl)acetamide]",530,3080,–,–
"O=C(Nc1cccc(Cl)c1)Nc1nc2ccc(C(F)(F)F)cc2s1 [Compound 24, N-(6-trifluoromethylbenzothiazole-2-yl)-N′-(3-chlorophenyl)urea]",740,11000,–,–
"COc1ccccc1CC(=O)Nc1nc2ccc(Cl)cc2s1 [Compound 31, N-(6-chlorobenzothiazole-2-yl)-2-(2-methoxyphenyl)acetamide]",320,1150,–,–
"O=C(Nc1nc2ccccc2s1)C(c1ccccc1)c1ccccc1 [Compound 33, N-(benzothiazole-2-yl)-2,2-diphenylacetamide]",1960,7310,–,–
"O=C(CC(c1ccccc1)c1ccccc1)Nc1nc2ccccc2s1 [Compound 34, N-(benzothiazole-2-yl)-3,3-diphenylpropanamide]",2500,9730,–,–
"O=C(COCc1ccccc1)Nc1nc2ccccc2s1 [Compound 35, N-(benzothiazole-2-yl)-2-benzyloxyacetamide]",4370,–,48,–
"O=C(CNC(=O)c1ccccc1)Nc1nc2ccccc2s1 [Compound 36, N-[2-(benzothiazole-2-ylamine)-2-oxoethyl]benzamide]",7290,–,48,–
"O=C(CNC(=O)C(c1ccccc1)c1ccccc1)Nc1nc2ccccc2s1 [Compound 37, N-(benzothiazole-2-yl)-2-(2,2-diphenylacetamide)acetamide]",1930,13000,–,–
"O=C(Cc1ccccc1)NCC(=O)Nc1nc2ccccc2s1 [Compound 38, N-(benzothiazole-2-yl)-2-(2-phenylacetamide)acetamide]",6330,–,37,–
"CCOc1ccc2nc(NC(=O)C(c3ccccc3)c3ccccc3)sc2c1 [Compound 39, N-(6-ethoxybenzothiazole-2-yl)-2,2-diphenylacetamide]",2820,7860,–,–
"CCOC(=O)c1ccc2nc(NC(=O)C(c3ccccc3)c3ccccc3)sc2c1 [Compound 40, Carboxylate[2-(2,2-diphenylacetamide)benzothiazole-6-yl]ethyl]",6680,1600,–,–
"NS(=O)(=O)c1ccc2nc(NC(=O)C(c3ccccc3)c3ccccc3)sc2c1 [Compound 41, N-(6-sulfamoylbenzothiazole-2-yl)-2,2-diphenylacetamide]",–,–,10,10
"CCNS(=O)(=O)c1ccc2nc(NC(=O)C(c3ccccc3)c3ccccc3)sc2c1 [Compound 42, N-(6-(N-ethylsulfamoyl)benzothiazole-2-yl)-2,2-diphenylacetamide]",–,–,10,10
"CCCCNS(=O)(=O)c1ccc2nc(NC(=O)C(c3ccccc3)c3ccccc3)sc2c1 [Compound 43, N-(6-(N-butylsulfamoyl)benzothiazole-2-yl)-2,2-diphenylacetamide]",–,–,10,10
"CCN(CC)S(=O)(=O)c1ccc2nc(NC(=O)C(c3ccccc3)c3ccccc3)sc2c1 [Compound 44, N-(6-(N,N-diethylsulfamoyl)benzothiazole-2-yl)-2,2-diphenylacetamide]",9830,3470,–,–
"COc1ccc(NC(=O)Nc2nc3ccc(C(F)(F)F)cc3s2)cc1 [Compound 46, N-(6-trifluoromethylbenzothiazole-2-yl)-N′-(4-methoxyphenyl)urea]",5500,–,29,–
"O=C(CCc1cccc(Cl)c1)Nc1nc2ccccc2s1 [Compound 47, N-(benzothiazole-2-yl)-3-(3-chlorophenyl)propanamide]",3580,–,31,–
"CCOc1ccc2nc(NC(=O)Cc3ccccc3Cl)sc2c1 [Compound 50, N-(6-ethoxybenzothiazole-2-yl)-2-(2-chlorophenyl)acetamide]",17400,–,20,–

# Continued, values first:
IC50 [1] [nM],IC50 [2] [nM],inhibition at 10 µM [2] [%],inhibition at 10 µM [1] [%],SMILES
70,500,–,–,"COc1ccc(CC(=O)Nc2nc3ccc(Cl)cc3s2)cc1 [Compound 2, N-(6-chlorobenzothiazole-2-yl)-2-(4-methoxyphenyl)acetamide]"
56,870,–,–,"O=C(Cc1ccc(Cl)c(Cl)c1)Nc1nc2ccc(C(F)(F)F)cc2s1 [Compound 9, N-(6-trifluoromethylbenzothiazole-2-yl)-2-(3,4-dichlorophenyl)acetamide]"
79,940,–,–,"COc1cc(CC(=O)Nc2nc3ccc(OC(F)(F)F)cc3s2)cc(OC)c1OC [Compound 11, N-(6-trifluoromethoxybenzothiazole-2-yl)-2-(3,4,5-trimethoxyphenyl)acetamide]"
87,720,–,–,"O=C(Cc1cccc(C(F)(F)F)c1)Nc1nc2ccc(C(F)(F)F)cc2s1 [Compound 13, N-(6-trifluoromethylbenzothiazole-2-yl)-2-(3-(trifluoromethyl)phenyl)acetamide]"
570,2410,–,–,"COc1ccc(CC(=O)Nc2nc3ccc(OC)cc3s2)cc1 [Compound 19, N-(6-methoxybenzothiazole-2-yl)-2-(4-methoxyphenyl)acetamide]"
750,8750,–,–,"COc1ccc2nc(NC(=O)Cc3ccc(Cl)cc3)sc2c1 [Compound 21, N-(6-methoxybenzothiazole-2-yl)-2-(4-chlorophenyl)acetamide]"
530,3730,–,–,"COc1ccc2nc(NC(=O)Cc3cccc(Cl)c3)sc2c1 [Compound 22, N-(6-methoxybenzothiazole-2-yl)-2-(3-chlorophenyl)acetamide]"
540,1020,–,–,"O=C(Cc1cccc(Cl)c1)Nc1nc2ccc(OC(F)(F)F)cc2s1 [Compound 23, N-(6-trifluoromethoxybenzothiazole-2-yl)-2-(3-chlorophenyl)acetamide]"
420,2430,–,–,"COc1cccc(CC(=O)Nc2nc3ccc(OC)cc3s2)c1 [Compound 25, N-(6-methoxybenzothiazole-2-yl)-2-(3-methoxyphenyl)acetamide]"
990,8970,–,–,"CCOc1ccc2nc(NC(=O)Cc3cccc(OC)c3)sc2c1 [Compound 26, N-(6-ethoxybenzothiazole-2-yl)-2-(3-methoxyphenyl)acetamide]"
620,7390,–,–,"COc1ccccc1CC(=O)Nc1nc2ccc(OC(F)(F)F)cc2s1 [Compound 27, N-(6-trifluoromethoxybenzothiazole-2-yl)-2-(2-methoxyphenyl)acetamide]"
590,930,–,–,"O=C(Cc1ccc(Cl)c(Cl)c1)Nc1nc2ccc(OC(F)(F)F)cc2s1 [Compound 28, N-(6-trifluoromethoxybenzothiazole-2-yl)-2-(3,4-dichlorophenyl)acetamide]"
190,3140,–,–,"COc1ccc(OC)c(CC(=O)Nc2nc3ccc(C(F)(F)F)cc3s2)c1 [Compound 29, N-(6-trifluoromethylbenzothiazole-2-yl)-2-(2,5-dimethoxyphenyl)acetamide]"
260,1030,–,–,"COc1ccccc1CC(=O)Nc1nc2ccc(Br)cc2s1 [Compound 32, N-(6-bromobenzothiazole-2-yl)-2-(2-methoxyphenyl)acetamide]"
1090,9490,–,–,"CCOc1ccc2nc(NC(=O)Cc3ccc(OC)cc3)sc2c1 [Compound 45, N-(6-ethoxybenzothiazole-2-yl)-2-(4-methoxyphenyl)acetamide]"
1210,9750,–,–,"CCOc1ccc2nc(NC(=O)Cc3cccc(Cl)c3)sc2c1 [Compound 48, N-(6-ethoxybenzothiazole-2-yl)-2-(3-chlorophenyl)acetamide]"
9710,–,30,–,"COc1ccc2nc(NC(=O)Cc3ccccc3Cl)sc2c1 [Compound 49, N-(6-methoxybenzothiazole-2-yl)-2-(2-chlorophenyl)acetamide]"
